Structures can show the parent of a compound that is named as a salt.
Tests used:
[1] = Stability of valnemulin acid addition salts in the pelleting procedure for animal feed; format: physicochemical; conditions: pelleting at 75° C.; wheat-based animal feed; 100 ppm valnemulin in the feed
Experimental: In order to test the stability of the valnemulin acid addition salts in animal feed, the calculated amount of the acid addition salt (corresponding to a target dose of 100 ppm) is added to ca. 4 kg of wheat-based animal feed and mixed in a high-speed laboratory mixer for 60 seconds to form a first premix (PM1). The ca. 4 kg of premix PM1 is then transferred to a horizontal mixer and mixed with 21 kg of the same feed for a further 6 minutes to form a further premix (PM2). The ca. 25 kg of premix PM2 is transferred to a vertical mixer and intimately mixed with a further 175 kg of the same animal feed for 8 minutes, whereupon a homogeneous, treated mixture is obtained, which contains valnemulin concentrations corresponding to the target dose of 100 ppm. Prior to further processing, samples of ca. 100 g each are taken from the upper, centre and lower part of the medicinal feed mixture, in order to test its homogeneity. In addition, further samples are taken randomly for use in stability tests. The finished, treated medicinal feed is now ready for pelleting. […] The 200 kg of finished medicinal feed is then fed continuously into the pelleting press of the feed mill over the course of ca. 20 mins. Afterwards, the pellets are dried in batches in a continuous stream of air, and cooled. To examine the homogeneity of the pelleted medicinal feed, several samples of ca. 100 g each are taken at the start, middle and end of the pelleting process. In addition, samples are taken in a random order from each batch, in order to test the stability in storage. […] In the following table 1, by way of example, the stabilities of different acid addition salts of valnemulin in the pelleting procedure for the animal feed are compared.

[2] = Stability of valnemulin during production and storage of feed pellets (background statements); format: physicochemical
Text: It has been shown that valnemulin is rather unstable when producing pelleted feed, particularly when in contact with the feed material, especially constituents of vegetable or animal origin. This leads to substantial losses already at the preparation stage. In the preparation of pelleted feed, the dried organic starting material of animal or vegetable origin is ground, mixed intimately with the admixtures, vitamins, trace elements and other additives, i.e. substantially homogenized, and then optionally moistened with ca. 5 to 10% by weight water and compressed into feed pellets at elevated temperatures ranging from ca. 60 to 100° C. at pressures of ca. 1 to 100 kbar. Short-term, local temperature peaks in the press, so-called flashes, even reach 200° C. for a short time. The retention time of the mass in the press is generally from ca. 5 to 180 seconds and depends inter alia on the size of the pellets.
Whereas valnemulin in the form of the dried, amorphous hydrochloride salt withstands these temperatures for a short time without significant decomposition and can be stored at room temperature even for a few months without any measurable loss of active ingredient, this active ingredient decomposes relatively rapidly under pressure and in intimate contact with animal or vegetable feed constituents and at the prevailing elevated temperatures. […]

Row | Loss of active substance in the pelleting procedure, average loss [1] | content of active ingredient in finished pellets on storage ([2]; finished pellets, room temperature, after three months) | active ingredient lost in compression into feed pellets ([2]; raised pressure and elevated temperature kept as short as possible, pellets immediately cooled to room temperature, contact with feed constituents) | SMILES
1 | 0.2% |  |  | C=C[C@]1(C)C[C@@H](OC(=O)CSC(C)(C)CNC(=O)[C@H](N)C(C)C)[C@]2(C)[C@H](C)CC[C@]3(CCC(=O)[C@H]32)[C@@H](C)[C@@H]1O.O=C(O)/C=C/C(=O)O [valnemulin hydrogen fumarate, Valnemulin Hydrogen Fumarate]
2 | 11.6% |  |  | C=C[C@]1(C)C[C@@H](OC(=O)CSC(C)(C)CNC(=O)[C@H](N)C(C)C)[C@]2(C)[C@H](C)CC[C@]3(CCC(=O)[C@H]32)[C@@H](C)[C@@H]1O [valnemulin hydrochloride]
3 |  | below 60% | one quarter to one third | C=C[C@]1(C)C[C@@H](OC(=O)CSC(C)(C)CNC(=O)C(N)C(C)C)[C@]2(C)C(C)CC[C@]3(CCC(=O)C32)[C@@H](C)[C@@H]1O (some centres unmarked) [valnemulin, Valnemulin]
4 | 0.3% |  |  | C=CC1(C)CC(OC(=O)CSC(C)(C)CNC(=O)C(N)C(C)C)C2(C)C(C)CCC3(CCC(=O)C32)C(C)C1O.O=C(O)C(O)C(O)C(=O)O [valnemulin D-hydrogen tartrate, Valnemulin D-Hydrogen Tartrate]

Reference: patent publication US20090156674A1, “Valnemulin Salts with Organic Acids” (priority 2005, published 2009)
